# Data as given in PubChem BioAssay AID1963858 (Molecular Pharmacology Branch, DTP, NCI, 2024).
# Test system: HOP-62 multicell spheroids with HUVEC/MSC, viability
# Test: Anticancer human tumor HOP-62 cell line growth inhibition [KRAS2];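 further: viability read after a week of compound exposure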;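 on viability, T/C: 100% = DMSO vehicle-treated spheroids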
# Settings: for viability, T/C: stronger effect = lower value; for IC50: curve of first compound
# In short: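 KRAS-mutant tumor cells were grown as spheroids with HUVEC endothelial cells and human MSCs as stroma. Targeted agents were tested alone and with KRAS pathway inhibitors. Doses started at or near clinical Cmax, or 10 microM, descending half-log.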
# [1] = second compound 0.1 µM, first compound 0.0316 µM
# [2] = second compound 0.1 µM, first compound 0.1 µM
# [3] = second compound 0.316 µM, first compound 0.0316 µM
# [4] = second compound 0.316 µM, first compound 0.1 µM
# [5] = second compound 1 µM, first compound 0.0316 µM
# [6] = second compound 1 µM, first compound 0.1 µM
# [7] = second compound 3.16 µM, first compound 0.0316 µM
# [8] = second compound 3.16 µM, first compound 0.1 µM
# [9] = second compound 10 µM, first compound 0.0316 µM
# [10] = second compound 10 µM, first compound 0.1 µM
compound,measurement,setting,value
COc1cc2nccc(Oc3ccc(NC(=O)C4(C(=O)Nc5ccc(F)cc5)CC4)cc3)c2cc1OC,"viability, T/C",compound 0.0316 µM,96.9% [middle of 5 runs]
same,"viability, T/C",compound 1 µM,99.2% [middle of 5 runs]
same,"viability, T/C",compound 3.16 µM,78.9% [middle of 5 runs]
COc1cc2nccc(Oc3ccc(NC(=O)C4(C(=O)Nc5ccc(F)cc5)CC4)cc3)c2cc1OC + CNCc1ccccc1-c1csc(C(C)Nc2nc(C)nc3cc(OC)c(OC)cc23)c1,IC50,second compound 0.1 µM,5360 nM
same,IC50,second compound 0.316 µM,4800 nM
same,IC50,second compound 1 µM,3670 nM
same,IC50,second compound 3.16 µM,< 31.6 nM
same,IC50,second compound 10 µM,< 31.6 nM
same,"viability, T/C",[1],92.4%
same,"viability, T/C",[2],94.1%
same,"viability, T/C","second compound 0.1 µM, first compound 0.316 µM",102%
same,"viability, T/C","second compound 0.1 µM, first compound 1 µM",96.3%
same,"viability, T/C","second compound 0.1 µM, first compound 3.16 µM",76%
same,"viability, T/C","second compound 0.1 µM, first compound 10 µM",19.3%
same,"viability, T/C",[3],90.6%
same,"viability, T/C",[4],82.8%
same,"viability, T/C","second compound 0.316 µM, first compound 0.316 µM",81.7%
same,"viability, T/C","second compound 0.316 µM, first compound 1 µM",86.9%
same,"viability, T/C","second compound 0.316 µM, first compound 3.16 µM",69.8%
same,"viability, T/C","second compound 0.316 µM, first compound 10 µM",15.2%
same,"viability, T/C",[5],74.7%
same,"viability, T/C",[6],79.2%
same,"viability, T/C","second compound 1 µM, first compound 0.316 µM",85.6%
same,"viability, T/C","second compound 1 µM, first compound 1 µM",80.7%
same,"viability, T/C","second compound 1 µM, first compound 3.16 µM",57.5%
same,"viability, T/C","second compound 1 µM, first compound 10 µM",0.44%
same,"viability, T/C",[7],0.34%
same,"viability, T/C",[8],0.17%
same,"viability, T/C","second compound 3.16 µM, first compound 0.316 µM",0.13%
same,"viability, T/C","second compound 3.16 µM, first compound 1 µM",0.15%
same,"viability, T/C","second compound 3.16 µM, first compound 3.16 µM",0.22%
same,"viability, T/C","second compound 3.16 µM, first compound 10 µM",0.14%
same,"viability, T/C",[9],0.12%
same,"viability, T/C",[10],0.14%
same,"viability, T/C","second compound 10 µM, first compound 0.316 µM",0.12%
same,"viability, T/C","second compound 10 µM, first compound 1 µM",0.11%
same,"viability, T/C","second compound 10 µM, first compound 3.16 µM",0.12%
same,"viability, T/C","second compound 10 µM, first compound 10 µM",0.19%
CN(C)C/C=C/C(=O)Nc1cc2c(Nc3ccc(F)c(Cl)c3)ncnc2cc1O[C@H]1CCOC1 + COc1cc2nc(C)nc(NC(C)c3cc(N)cc(C(F)(F)F)c3)c2cc1OC1CCOC1,IC50,second compound 0.1 µM,> 100 nM
same,IC50,second compound 0.316 µM,> 100 nM
same,IC50,second compound 1 µM,> 100 nM
same,IC50,second compound 3.16 µM,> 100 nM
same,IC50,second compound 10 µM,> 100 nM
same,"viability, T/C","second compound 0.1 µM, first compound 0.000316 µM",105%
same,"viability, T/C","second compound 0.1 µM, first compound 0.001 µM",109%
same,"viability, T/C","second compound 0.1 µM, first compound 0.00316 µM",105%
same,"viability, T/C","second compound 0.1 µM, first compound 0.01 µM",107%
same,"viability, T/C",[1],105%
same,"viability, T/C",[2],97%
same,"viability, T/C","second compound 0.316 µM, first compound 0.000316 µM",115%
same,"viability, T/C","second compound 0.316 µM, first compound 0.001 µM",107%
same,"viability, T/C","second compound 0.316 µM, first compound 0.00316 µM",112%
same,"viability, T/C","second compound 0.316 µM, first compound 0.01 µM",96.7%
same,"viability, T/C",[3],100%
same,"viability, T/C",[4],97.7%
same,"viability, T/C","second compound 1 µM, first compound 0.000316 µM",107%
same,"viability, T/C","second compound 1 µM, first compound 0.001 µM",102%
same,"viability, T/C","second compound 1 µM, first compound 0.00316 µM",114%
same,"viability, T/C","second compound 1 µM, first compound 0.01 µM",106%
same,"viability, T/C",[5],101%
same,"viability, T/C",[6],111%
same,"viability, T/C","second compound 3.16 µM, first compound 0.000316 µM",72.3%
same,"viability, T/C","second compound 3.16 µM, first compound 0.001 µM",64.1%
same,"viability, T/C","second compound 3.16 µM, first compound 0.00316 µM",70%
same,"viability, T/C","second compound 3.16 µM, first compound 0.01 µM",64.2%
same,"viability, T/C",[7],59.8%
same,"viability, T/C",[8],64.3%
same,"viability, T/C","second compound 10 µM, first compound 0.000316 µM",73.7%
same,"viability, T/C","second compound 10 µM, first compound 0.001 µM",51.6%
same,"viability, T/C","second compound 10 µM, first compound 0.00316 µM",49.6%
same,"viability, T/C","second compound 10 µM, first compound 0.01 µM",62.7%
same,"viability, T/C",[9],59.9%
same,"viability, T/C",[10],70.8%
